The source made the active and inactive calls.
Tests used:
Cytochrome P450 2D6 = Cytochrome P450 2D6 (Homo sapiens, UniProt P10635);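 further: CYP2D6 member of a cytochrome P450 panel assay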
[1] = target: T1, Heat shock factor protein 1 (Mus musculus, UniProt P38532); assay: decrease of HSF1-responsive luciferase luminescence – cell-based, NIH3T3, dose retest, confirmation (AID 2382); type: functional;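 further: NIH3T3 fibroblasts with HSF1-driven luciferase reporter stressed by proteasome inhibitor MG132; luminescence from HSF1-driven luciferase expression after 8 hours of MG132 stress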
T1 sequence (P38532 whole entry): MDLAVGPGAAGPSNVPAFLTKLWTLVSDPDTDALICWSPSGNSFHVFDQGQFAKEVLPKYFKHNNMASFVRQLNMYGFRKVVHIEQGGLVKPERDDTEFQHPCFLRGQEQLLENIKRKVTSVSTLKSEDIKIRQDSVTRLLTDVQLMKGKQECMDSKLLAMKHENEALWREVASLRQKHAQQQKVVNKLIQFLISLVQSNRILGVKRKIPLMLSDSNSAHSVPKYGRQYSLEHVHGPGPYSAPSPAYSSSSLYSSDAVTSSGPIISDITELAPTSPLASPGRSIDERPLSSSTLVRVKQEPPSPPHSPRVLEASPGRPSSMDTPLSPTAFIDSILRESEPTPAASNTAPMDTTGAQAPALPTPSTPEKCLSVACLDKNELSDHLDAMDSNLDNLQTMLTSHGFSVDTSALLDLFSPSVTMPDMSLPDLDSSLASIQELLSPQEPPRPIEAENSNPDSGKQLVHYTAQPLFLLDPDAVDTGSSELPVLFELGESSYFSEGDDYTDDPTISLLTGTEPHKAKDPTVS

Cytochrome P450 3A4 = Cytochrome P450 3A4 (Homo sapiens, UniProt P08684);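 further: CYP3A4 tested as one member of a cytochrome P450 panel screen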
Cytochrome P450 2C19 = Cytochrome P450 2C19 (Homo sapiens, UniProt P33261); assay: Cytochrome panel assay with activity outcomes. Panel member name: p450-cyp2c19 Compounds with AC50 equal or less than 10 uM are considered active; type: functional; conditions: read-out: AC50
Chain of Cytochrome P450 2C19 (P33261 whole entry): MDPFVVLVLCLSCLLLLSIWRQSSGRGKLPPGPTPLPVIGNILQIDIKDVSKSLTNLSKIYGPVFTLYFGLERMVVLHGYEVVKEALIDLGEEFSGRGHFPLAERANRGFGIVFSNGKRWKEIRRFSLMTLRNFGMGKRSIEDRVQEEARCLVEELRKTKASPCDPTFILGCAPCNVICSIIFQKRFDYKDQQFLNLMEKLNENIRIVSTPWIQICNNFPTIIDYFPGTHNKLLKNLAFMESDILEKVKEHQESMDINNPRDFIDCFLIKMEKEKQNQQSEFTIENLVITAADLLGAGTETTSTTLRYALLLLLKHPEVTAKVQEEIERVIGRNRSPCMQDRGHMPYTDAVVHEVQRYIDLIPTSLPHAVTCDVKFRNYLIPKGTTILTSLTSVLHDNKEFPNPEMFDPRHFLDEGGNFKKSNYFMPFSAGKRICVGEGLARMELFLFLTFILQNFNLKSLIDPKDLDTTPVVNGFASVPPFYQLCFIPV

[2] = target: T2, Apoptotic protease-activating factor 1 (Homo sapiens, UniProt O14727); type: functional
T2 sequence (O14727 whole entry): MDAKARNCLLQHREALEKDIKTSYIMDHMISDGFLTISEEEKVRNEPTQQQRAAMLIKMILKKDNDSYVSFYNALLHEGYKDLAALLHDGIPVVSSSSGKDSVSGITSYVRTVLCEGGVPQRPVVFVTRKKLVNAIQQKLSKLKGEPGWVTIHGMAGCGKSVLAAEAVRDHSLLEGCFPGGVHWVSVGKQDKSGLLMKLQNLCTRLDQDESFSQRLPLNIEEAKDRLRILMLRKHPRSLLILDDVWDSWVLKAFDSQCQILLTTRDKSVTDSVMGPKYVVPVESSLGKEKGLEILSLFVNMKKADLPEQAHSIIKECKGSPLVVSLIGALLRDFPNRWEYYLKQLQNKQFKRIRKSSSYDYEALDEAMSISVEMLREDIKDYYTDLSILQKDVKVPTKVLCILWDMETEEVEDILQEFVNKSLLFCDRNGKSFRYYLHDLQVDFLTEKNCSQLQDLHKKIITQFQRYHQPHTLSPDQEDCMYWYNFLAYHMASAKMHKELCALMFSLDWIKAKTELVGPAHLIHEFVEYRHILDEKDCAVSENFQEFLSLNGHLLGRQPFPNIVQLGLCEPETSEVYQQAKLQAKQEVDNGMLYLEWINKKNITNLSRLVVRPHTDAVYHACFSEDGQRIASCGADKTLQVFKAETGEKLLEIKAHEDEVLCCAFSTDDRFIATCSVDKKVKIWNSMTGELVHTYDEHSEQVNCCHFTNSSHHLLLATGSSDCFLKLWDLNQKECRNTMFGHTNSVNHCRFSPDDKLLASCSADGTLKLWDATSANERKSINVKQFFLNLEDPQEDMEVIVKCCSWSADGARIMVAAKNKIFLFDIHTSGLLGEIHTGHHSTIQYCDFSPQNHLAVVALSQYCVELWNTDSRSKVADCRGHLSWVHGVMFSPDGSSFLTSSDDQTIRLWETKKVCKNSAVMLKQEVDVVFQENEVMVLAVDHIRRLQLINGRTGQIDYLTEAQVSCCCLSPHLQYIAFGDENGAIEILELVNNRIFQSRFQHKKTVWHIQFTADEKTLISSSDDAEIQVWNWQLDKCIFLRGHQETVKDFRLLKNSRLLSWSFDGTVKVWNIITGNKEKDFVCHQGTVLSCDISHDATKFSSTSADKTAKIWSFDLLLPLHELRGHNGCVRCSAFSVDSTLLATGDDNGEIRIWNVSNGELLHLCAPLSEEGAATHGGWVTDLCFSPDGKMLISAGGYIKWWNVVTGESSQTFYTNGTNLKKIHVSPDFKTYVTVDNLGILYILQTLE

Insulin-degrading enzyme [3] = target: T3, Insulin-degrading enzyme (Homo sapiens, UniProt P14735); assay: cellular IDE activation of Abeta substrate cleavage – fluorescence polarization, HEK cells, dose response (AID 588439); type: functional, cell-based
T3 sequence (P14735 whole entry): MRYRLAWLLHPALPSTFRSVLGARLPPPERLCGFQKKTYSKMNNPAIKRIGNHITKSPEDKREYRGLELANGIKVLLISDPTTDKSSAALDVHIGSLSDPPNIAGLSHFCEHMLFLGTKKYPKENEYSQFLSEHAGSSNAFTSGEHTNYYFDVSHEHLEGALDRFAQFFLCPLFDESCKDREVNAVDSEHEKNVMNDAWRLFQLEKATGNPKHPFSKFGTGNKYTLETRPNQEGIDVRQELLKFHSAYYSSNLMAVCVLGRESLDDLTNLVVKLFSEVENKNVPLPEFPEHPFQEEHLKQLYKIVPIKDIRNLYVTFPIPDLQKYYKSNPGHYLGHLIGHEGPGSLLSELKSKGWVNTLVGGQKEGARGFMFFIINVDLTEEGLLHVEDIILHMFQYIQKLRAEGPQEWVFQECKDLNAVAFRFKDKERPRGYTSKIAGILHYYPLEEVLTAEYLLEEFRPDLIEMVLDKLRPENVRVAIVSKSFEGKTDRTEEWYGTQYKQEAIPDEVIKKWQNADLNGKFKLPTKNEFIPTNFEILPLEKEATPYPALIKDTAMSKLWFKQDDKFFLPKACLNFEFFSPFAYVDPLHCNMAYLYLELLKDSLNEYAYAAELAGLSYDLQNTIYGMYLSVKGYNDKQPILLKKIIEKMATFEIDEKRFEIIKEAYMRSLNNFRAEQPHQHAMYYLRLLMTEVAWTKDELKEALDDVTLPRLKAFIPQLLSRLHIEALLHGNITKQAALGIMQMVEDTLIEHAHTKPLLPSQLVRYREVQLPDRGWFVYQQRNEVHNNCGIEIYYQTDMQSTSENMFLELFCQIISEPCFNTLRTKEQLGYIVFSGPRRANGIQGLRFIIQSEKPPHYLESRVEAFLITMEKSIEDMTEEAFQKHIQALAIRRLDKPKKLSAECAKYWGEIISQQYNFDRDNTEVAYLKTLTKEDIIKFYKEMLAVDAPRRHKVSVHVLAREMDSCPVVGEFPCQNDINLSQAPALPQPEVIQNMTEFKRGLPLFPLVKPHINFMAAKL

ORF 73 = ORF 73 (Human herpesvirus 8, UniProt O40947); assay: KSHV LANA DNA-binding disruption – biochemical, fluorescence polarization, cherry-picked samples, dose response (AID 504725); set-up: species or system Human gammaherpesvirus 8;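 further: fluorescence polarization of a labeled DNA duplex reporting LANA DNA binding; potency is for inhibitors that block LANA binding to the DNA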
Chain of ORF 73 (O40947 whole entry): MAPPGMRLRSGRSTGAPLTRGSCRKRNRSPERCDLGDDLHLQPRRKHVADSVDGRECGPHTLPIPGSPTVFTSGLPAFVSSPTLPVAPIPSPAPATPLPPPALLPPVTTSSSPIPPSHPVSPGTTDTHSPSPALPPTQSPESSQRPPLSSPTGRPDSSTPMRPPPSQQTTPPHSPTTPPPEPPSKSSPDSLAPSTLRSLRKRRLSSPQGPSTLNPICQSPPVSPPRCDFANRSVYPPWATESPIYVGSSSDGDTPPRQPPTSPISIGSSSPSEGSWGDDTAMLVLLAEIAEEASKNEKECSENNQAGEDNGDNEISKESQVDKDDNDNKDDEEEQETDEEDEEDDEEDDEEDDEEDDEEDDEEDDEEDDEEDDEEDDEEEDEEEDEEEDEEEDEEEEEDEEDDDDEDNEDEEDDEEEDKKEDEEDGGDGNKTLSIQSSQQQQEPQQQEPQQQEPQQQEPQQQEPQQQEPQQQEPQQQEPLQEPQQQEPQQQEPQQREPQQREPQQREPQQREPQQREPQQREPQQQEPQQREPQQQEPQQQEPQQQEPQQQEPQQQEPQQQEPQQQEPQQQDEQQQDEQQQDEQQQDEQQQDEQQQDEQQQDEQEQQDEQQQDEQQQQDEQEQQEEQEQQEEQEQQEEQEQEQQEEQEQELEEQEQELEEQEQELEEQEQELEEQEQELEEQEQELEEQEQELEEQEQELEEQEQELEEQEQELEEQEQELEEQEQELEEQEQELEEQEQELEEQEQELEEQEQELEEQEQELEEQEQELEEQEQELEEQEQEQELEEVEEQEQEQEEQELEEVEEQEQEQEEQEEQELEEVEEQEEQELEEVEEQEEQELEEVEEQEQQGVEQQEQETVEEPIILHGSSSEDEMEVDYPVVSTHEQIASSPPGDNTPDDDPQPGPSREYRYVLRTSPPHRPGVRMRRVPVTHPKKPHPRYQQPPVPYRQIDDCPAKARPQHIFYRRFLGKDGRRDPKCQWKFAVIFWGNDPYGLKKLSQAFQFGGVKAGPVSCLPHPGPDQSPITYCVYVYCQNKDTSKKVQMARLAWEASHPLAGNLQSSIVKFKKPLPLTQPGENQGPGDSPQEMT

Insulin-degrading enzyme [4] = target: T3, Insulin-degrading enzyme; assay: recombinant IDE activation, cell-free – biochemical, fluorescence polarization, counter-screen for IDE activator project, dose response (AID 588681)
HEK293 [5] = assay: membrane integrity loss in HEK cells – cell-based, fluorescence, cytotoxicity control for IDE activator project, dose response (AID 588440); type: functional; conditions: Homo sapiens;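 further: cytotoxicity by LDH release measuring loss of membrane integrity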
[6] = target: UDP-galactopyranose mutase (Mycobacterium tuberculosis, UniProt P9WIQ1); assay: Inhibitors of Mycobacterium tuberculosis UDP-galactopyranose mutase (UGM) enzyme Measured in Biochemical System Using Plate Reader - 2105-02_Inhibitor_Dose_CherryPick_Activity. [Related pubchem assays (depositor defined):AID504439]
Chain of UDP-galactopyranose mutase (P9WIQ1 whole entry): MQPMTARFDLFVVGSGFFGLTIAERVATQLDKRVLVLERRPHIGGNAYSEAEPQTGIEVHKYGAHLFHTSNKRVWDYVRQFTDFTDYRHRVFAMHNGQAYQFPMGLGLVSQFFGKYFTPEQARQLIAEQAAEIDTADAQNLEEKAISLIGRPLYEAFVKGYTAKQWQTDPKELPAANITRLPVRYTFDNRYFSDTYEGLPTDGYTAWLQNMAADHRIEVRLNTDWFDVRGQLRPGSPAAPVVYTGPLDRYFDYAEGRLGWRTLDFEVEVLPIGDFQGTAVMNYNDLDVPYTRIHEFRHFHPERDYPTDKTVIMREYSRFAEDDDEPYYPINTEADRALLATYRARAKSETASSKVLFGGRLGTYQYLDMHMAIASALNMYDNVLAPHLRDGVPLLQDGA

HEK293 [7] = assay: optical interference in Abeta FP readout, dose response, artefact control for IDE activator project, biochemical, fluorescence polarization (AID 588442); type: functional, cell-based; conditions: Homo sapiens
[8] = target: Beta-adrenergic receptor kinase 1 (Homo sapiens, UniProt P25098); assay: blockers of aptamer binding to GRK2 – biochemical, flow cytometry beads, FAM-aptamer, powder set 1, dose response (AID 588720)
Chain of Beta-adrenergic receptor kinase 1 (P25098 whole entry): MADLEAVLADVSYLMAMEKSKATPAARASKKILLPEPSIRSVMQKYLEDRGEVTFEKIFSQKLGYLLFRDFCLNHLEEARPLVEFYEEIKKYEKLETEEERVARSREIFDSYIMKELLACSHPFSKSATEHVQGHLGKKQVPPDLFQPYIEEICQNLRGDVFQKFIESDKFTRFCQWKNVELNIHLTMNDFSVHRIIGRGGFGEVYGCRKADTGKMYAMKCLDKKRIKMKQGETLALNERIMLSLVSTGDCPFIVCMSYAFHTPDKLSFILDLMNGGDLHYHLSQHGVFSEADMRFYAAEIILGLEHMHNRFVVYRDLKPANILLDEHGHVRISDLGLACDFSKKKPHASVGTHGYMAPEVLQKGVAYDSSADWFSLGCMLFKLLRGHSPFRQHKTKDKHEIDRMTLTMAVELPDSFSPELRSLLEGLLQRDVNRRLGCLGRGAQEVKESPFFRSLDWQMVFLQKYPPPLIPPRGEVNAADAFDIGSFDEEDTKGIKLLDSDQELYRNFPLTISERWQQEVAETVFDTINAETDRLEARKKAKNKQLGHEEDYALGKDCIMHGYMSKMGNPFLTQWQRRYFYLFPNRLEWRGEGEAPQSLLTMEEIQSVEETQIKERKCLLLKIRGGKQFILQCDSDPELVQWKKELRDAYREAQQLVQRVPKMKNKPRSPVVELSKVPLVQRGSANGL

[9] = Luminescence Cell-Based Dose Response HTS to Identify Inhibitors of 5'UTR Stem-Loop Driven Prion Protein mRNA Translation in H4 Neuroglioblastoma Cells. [Related pubchem assays: 1827 (Project Summary), 1813 (Primary HTS)]; type: functional
[10] = alpha-synuclein stem-loop luciferase translation blockers – H4 neuroglioma cells, luminescence, confirmation (AID 1988); type: functional, cell-based
[11] = viability loss in CEM21 cells – cell-based, CellTiter-Glo luminescence, cherry-picked, cytotoxicity control for viral fusion inhibitor project, dose response (AID 652042); type: functional;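 further: potency for signal decrease meaning cytotoxicity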
[12] = HEK-293T viability loss, compound-treated – cell-based, uHTS hits, cytotoxicity control for B/T-cell NF-kB inhibitor project, dose response (AID 489019); type: functional;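 further: IC50 reflects cytotoxicity as loss of cell viability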
Jurkat = assay: blockers of NF-kB activation in T cells – Jurkat, luciferase reporter, luminescence, B- and T-cell, dose response (AID 489004); type: functional, cell-based; conditions: Homo sapiens;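 further: NF-kB luciferase reporter Jurkat cells stimulated with PMA plus ionomycin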
[13] = luciferase reporter signal suppression in cells – H4 neuroglioma cells, luminescence, dose response (AID 1990); type: functional, cell-based
[14] = off-target signal loss in HeLa-CEM21 co-culture – HeLa F-luc CTL cells, cherry-picked, counter-screen for HIV-1 Env fusion inhibitor project, dose response (AID 652040); type: functional, cell-based;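 further: potency for signal decrease marking cytotoxic or nonspecific inhibition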
[15] = HIV-1 AD8 envelope cell-cell fusion blockers – cherry-pick, dose response (AID 652062); type: functional, cell-based;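 further: luciferase signal from cell-cell fusion driven by HIV-1 clade B AD8 Env; potency is for inhibitors of fusion seen as a drop in luminescence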
Keap1/Nrf2 = Keap1/Nrf2 (Homo sapiens, UniProt Q14145); assay: disruptors of Keap1 binding to Nrf2 peptide – biochemical, fluorescence polarization, cherry-picked samples, dose response (AID 588683)
Chain of Keap1/Nrf2 (Q16236 whole entry, the tested form may be a part): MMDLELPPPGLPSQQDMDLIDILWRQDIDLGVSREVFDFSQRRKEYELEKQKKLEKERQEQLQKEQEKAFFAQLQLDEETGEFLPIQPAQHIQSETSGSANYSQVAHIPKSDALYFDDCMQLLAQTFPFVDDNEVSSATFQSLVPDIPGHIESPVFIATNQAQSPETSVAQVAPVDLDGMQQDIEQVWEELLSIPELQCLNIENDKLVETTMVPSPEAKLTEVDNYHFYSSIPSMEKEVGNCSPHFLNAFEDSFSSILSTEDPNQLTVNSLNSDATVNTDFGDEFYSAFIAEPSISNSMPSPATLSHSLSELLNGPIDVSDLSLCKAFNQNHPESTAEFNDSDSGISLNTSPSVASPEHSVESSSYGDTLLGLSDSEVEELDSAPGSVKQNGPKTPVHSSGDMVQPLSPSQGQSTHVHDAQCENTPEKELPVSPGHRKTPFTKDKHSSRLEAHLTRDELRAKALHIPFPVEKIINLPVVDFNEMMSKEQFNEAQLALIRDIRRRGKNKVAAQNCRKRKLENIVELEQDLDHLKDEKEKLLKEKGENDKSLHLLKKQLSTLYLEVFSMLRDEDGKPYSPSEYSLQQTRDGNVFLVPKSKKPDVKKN
Chain of Keap1/Nrf2 (Q14145 whole entry, the tested form may be a part): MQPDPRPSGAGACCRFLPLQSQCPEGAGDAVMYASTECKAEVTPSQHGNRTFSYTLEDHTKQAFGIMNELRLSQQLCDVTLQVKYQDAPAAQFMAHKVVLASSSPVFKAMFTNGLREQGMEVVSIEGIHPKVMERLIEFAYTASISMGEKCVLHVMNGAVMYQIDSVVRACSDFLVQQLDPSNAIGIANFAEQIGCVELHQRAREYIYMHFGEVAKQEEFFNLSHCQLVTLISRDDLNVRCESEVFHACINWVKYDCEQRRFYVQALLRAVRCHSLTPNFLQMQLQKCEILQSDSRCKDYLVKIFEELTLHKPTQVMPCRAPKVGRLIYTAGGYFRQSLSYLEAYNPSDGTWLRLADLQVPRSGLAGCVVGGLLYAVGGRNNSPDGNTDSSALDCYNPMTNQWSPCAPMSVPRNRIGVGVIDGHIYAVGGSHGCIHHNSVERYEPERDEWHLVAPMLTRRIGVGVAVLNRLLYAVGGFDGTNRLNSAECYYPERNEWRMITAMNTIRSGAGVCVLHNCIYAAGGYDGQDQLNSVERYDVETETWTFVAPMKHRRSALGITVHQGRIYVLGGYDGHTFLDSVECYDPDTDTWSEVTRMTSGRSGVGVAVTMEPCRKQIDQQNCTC

CHO = CHO cell viability loss, potency – luminescence, cytotoxicity control for TLR9-MyD88 binding inhibitor project, dose response (AID 588339); type: functional, cell-based, hamster; conditions: Cricetulus griseus;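 further: CHO cells stably coexpressing TLR9 and MyD88 fusions from primary screen; compound exposure lasted 48 hours before viability readout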
Beta Lactamase = Beta Lactamase (Pseudomonas aeruginosa, UniProt Q932Y6); assay: BLA reporter interference, concentration series – BLA reporter cells, FRET fluorescence, artefact control for TLR9-MyD88 binding inhibitor project, dose response (AID 588341); type: cell-based;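 further: cell based assay in CHO-K1 cells stably expressing beta-lactamase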
Chain of Beta Lactamase (Q932Y6 whole entry): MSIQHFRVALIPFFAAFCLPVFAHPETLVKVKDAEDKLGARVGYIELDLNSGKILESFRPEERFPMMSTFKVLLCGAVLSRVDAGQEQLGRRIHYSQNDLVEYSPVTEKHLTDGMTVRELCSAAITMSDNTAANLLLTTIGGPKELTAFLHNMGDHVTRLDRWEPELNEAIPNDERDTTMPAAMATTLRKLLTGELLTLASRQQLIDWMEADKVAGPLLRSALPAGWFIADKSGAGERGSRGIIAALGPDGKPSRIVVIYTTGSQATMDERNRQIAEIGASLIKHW

[16] = target: Dual specificity tyrosine-phosphorylation-regulated kinase 1A (Rattus norvegicus, UniProt Q63470); type: biochemical, Homo sapiens
Candida albicans = assay: antifungal activity against resistant Candida strain – CaCi-8, fluconazole, Alamar Blue, dry powder, dose response (AID 488807); type: functional, organism-based

Chain of Cytochrome P450 2D6 (P10635 whole entry): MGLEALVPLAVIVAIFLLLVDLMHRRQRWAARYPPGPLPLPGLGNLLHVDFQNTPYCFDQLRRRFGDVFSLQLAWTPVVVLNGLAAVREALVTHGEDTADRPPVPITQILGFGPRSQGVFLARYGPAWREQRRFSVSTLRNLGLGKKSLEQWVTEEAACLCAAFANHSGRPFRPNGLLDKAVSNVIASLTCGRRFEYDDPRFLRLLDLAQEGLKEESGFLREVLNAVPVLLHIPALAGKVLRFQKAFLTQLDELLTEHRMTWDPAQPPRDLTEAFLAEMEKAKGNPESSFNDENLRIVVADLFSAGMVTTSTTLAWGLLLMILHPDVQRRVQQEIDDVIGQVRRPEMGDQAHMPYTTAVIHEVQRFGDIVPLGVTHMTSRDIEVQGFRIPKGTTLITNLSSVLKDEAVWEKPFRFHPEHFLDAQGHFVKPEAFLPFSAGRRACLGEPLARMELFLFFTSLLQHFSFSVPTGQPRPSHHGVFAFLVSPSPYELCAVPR

SMILES: CCOC(=O)Cc1csc(NC(=O)c2sc3nc4ccc(CC)cc4cc3c2N)n1
- AC50 (Cytochrome P450 2D6): inconclusive
- EC50 [1]: > 195 µM (not active)
- AC50 (Cytochrome P450 3A4): 35.5 µM (inconclusive)
- AC50 (Cytochrome P450 2C19): 0.2 µM (inconclusive)

SMILES: CCOc1ccc2noc3c2c1C(=O)c1ccccc1-3
- IC50 [2]: 87.4 µM (active)
- EC50 (Insulin-degrading enzyme [3]): > 54.7 µM (inactive)
- AC50 (ORF 73): 0.572 µM (active)
- EC50 (Insulin-degrading enzyme [4]): > 54.7 µM (inactive)
- IC50 (HEK293 [5]): > 89.1 µM (inactive)
- AC50 [6]: 0.356 µM (active)
- EC50 (HEK293 [7]): 4.95 µM (active)

SMILES: COc1ccc(CCNC(=O)CCS(=O)(=O)c2ccc(Br)cc2)cc1OC
- EC50 [8]: 14.9 µM (active)

SMILES: CCOc1ccc(-c2cc(CCCC(=O)Nc3cccc(OC)c3)no2)cc1
- EC50 [9]: 0.24 µM (active)
- EC50 [10]: 3.89 µM (active)
- AC50 [11]: 58.9 µM (active)
- IC50 [12]: > 80 µM (inactive)
- IC50 (Jurkat): 9.95 µM (active)
- EC50 [13]: 7.56 µM (active)
- AC50 [14]: 55.4 µM (active)
- AC50 [15]: 2.45 µM (active)

SMILES: Oc1ccc2nnc3c(Br)cnn3c2c1
- AC50 (Keap1/Nrf2): 16.1 µM (active)
- IC50 (CHO): > 49.8 µM (inactive)
- IC50 (Beta Lactamase): 6.63 µM (active)
- AC50 [16]: 1.11 µM (active)
- AC50 (ORF 73): 6.64 µM (active)

SMILES: O=C(O)c1c2ccccc2nn1Cc1ccc(Cl)cc1
- AC50 (Candida albicans): 149 µM (active)
